Legend:
liver of C57BL/6 mice = test: Histopathological scoring of liver sections; assay type: in vivo, mouse; design: Fibrosis (periportal), Mean Grade / Vacuolation (centrilobular), Mean Grade / Necrosis; Inflammatory cell foci, Mean Grade / Bile duct proliferation, Mean Grade: scale not given here; details: for Bile duct proliferation, Mean Grade / Fibrosis (periportal), Mean Grade / Necrosis; Inflammatory cell foci, Mean Grade / Vacuolation (centrilobular), Mean Grade: mean ±SD; for Dose at which hepatocyte vacuolization (fatty change) was first observed / Doses at which minimal to slight hepatocyte necrosis and inflammatory cell infiltration were present: every 4 d for 28 d
Method: Postnatal day 25 (PND25) male C57BL/6 mice weighing within 10% of each other were obtained from Charles River Laboratories (Kingston, NY) and housed in Innovive Innocages (San Diego, CA) containing ALPHA-dri bedding (Shepherd Specialty Papers, Chicago, IL) in a 23 °C environment with 30–40% humidity and a 12-hour light/dark cycle (7am–7 pm). Mice were provided Aquavive water (Innovive) and Harlan Teklad 22/5 Rodent Diet 8940 (Madison, WI) ad libitum, and were acclimated for […] prior to treatment. Beginning on PND28, animals (n = 8; co-housed 4 per cage) were orally gavaged with sesame oil vehicle (Sigma-Aldrich, St. Louis, MO), 0.01, 0.03, 0.1, 0.3, 1, 3, 10, or 30 μg/kg TCDD (AccuStandard, New Haven, CT) every 4d for a total of 28d (7 exposures; Supplementary Fig. S3). The doses used compensate for the relatively short study duration compared to lifelong cumulative human exposure from diverse AhR ligands, the bioaccumulative nature of halogenated AhR ligands, and differences in TCDD’s metabolism and half-life (humans: 1–11 years, [61], mice: 8–12d[62]). TCDD doses between 0.01 and 30 µg/kg result in mouse hepatic tissue levels that span human background serum concentrations reported in the United States, Germany, Spain, and the United Kingdom as well as serum levels in Viktor Yushchenko 4–39 months following intentional poisoning. For the histopathological comparison, female C57BL/6 mice were orally gavaged with sesame oil vehicle or 0.01–30 µg/kg TCDD every 4d for 28d, as previously described. All animal handling procedures were performed with the approval of the Michigan State University (MSU) Institutional Animal Care and Use Committee, in accordance with the relevant ethical guidelines and regulations.
All processing was performed by the MSU Investigative Histopathology Laboratory (https://humanpathology.natsci.msu.edu/). Formalin-fixed hepatic tissues were vacuum infiltrated with paraffin using a Tissue-Tek VIP 2000 tissue processor (Sakura) and embedded with the Thermo Fisher HistoCentre III Embedding Center (Thermo Fisher, Waltham, Massachusetts). Paraffin blocks were sectioned at 4–5 µm with a Reichert Jung 2030 rotary microtome (Reichert, Depew, New York) and dried for 2–24 h at 56 °C to ensure adherence to the slides. For lipid staining, liver sections frozen in O.C.T. compound were sectioned at 6 µm, fixed in 10% NBF for 5 min, rinsed with water, and immersed in 100% propylene glycol for 5 min. Liver sections were stained with hematoxylin and eosin (H&E) for general histological assessment. Lipids were stained using Oil Red O (ORO) as previously described. Macrophages were labeled using a monoclonal anti-mouse F4/80 antibody (1:100 dilution; AbD Serotec, Raleigh, NC). Collagen was stained with 0.1% Picro-Sirius Red (PSR) dye, with Weigert’s Hematoxylin nuclear dye. Histological assessment of hepatic tissue from female C57BL/6 mice was performed as previously described, [32].

[1] = design: method as in PMID 6138222; details: mice; cited from earlier work
male C57BL/6 mice = test: Whole gut transit time with carmine red dye; assay type: in vivo, mouse
Method: At 27d after the initial dose (PND55), whole gut transit time (WGTT) was determined using carmine red dye, which cannot be intestinally absorbed. At time 0 (t0), mice were orally gavaged with 150 µL of carmine red solution (6% carmine red dye suspended in 0.5% methylcellulose). Fecal pellets were monitored continuously for the presence of carmine red. WGTT represents the time interval between t0 and the first observance of carmine red dye in the fecal pellets.

[2] = female, 0.3 µg/kg TCDD every 4 d for 28 d
[3] = female, 1 µg/kg TCDD every 4 d for 28 d
[4] = female, 3 µg/kg TCDD every 4 d for 28 d
[5] = female, 10 µg/kg TCDD every 4 d for 28 d
[6] = female, 30 µg/kg TCDD every 4 d for 28 d
[7] = male, 0.3 µg/kg TCDD every 4 d for 28 d
[8] = male, 1 µg/kg TCDD every 4 d for 28 d
[9] = male, 3 µg/kg TCDD every 4 d for 28 d
[10] = male, 10 µg/kg TCDD every 4 d for 28 d
[11] = male, 30 µg/kg TCDD every 4 d for 28 d

Structure (SMILES): Clc1cc2c(cc1Cl)Oc1cc(Cl)c(Cl)cc1O2 [TCDD, 2,3,7,8-tetrachlorodibenzo-p-dioxin]
- Inflammation surrounding the bile ducts (pericholangitis) (liver of C57BL/6 mice; 30 µg/kg TCDD every 4 d for 28 d, male vs female): exclusive to males
- Bile duct proliferation, Incidence (liver of C57BL/6 mice; [2]): 0/8
- Fibrosis (periportal), Incidence (liver of C57BL/6 mice; [2]): 0/8
- Necrosis; Inflammatory cell foci, Incidence (liver of C57BL/6 mice; [2]): 0/8
- Vacuolation (centrilobular), Incidence (liver of C57BL/6 mice; [2]): 0/8
- Bile duct proliferation, Incidence (liver of C57BL/6 mice; [3]): 0/6
- Fibrosis (periportal), Incidence (liver of C57BL/6 mice; [3]): 0/6
- Necrosis; Inflammatory cell foci, Incidence (liver of C57BL/6 mice; [3]): 0/6
- Vacuolation (centrilobular), Incidence (liver of C57BL/6 mice; [3]): 0/6
- Bile duct proliferation, Incidence (liver of C57BL/6 mice; [4]): 0/6
- Fibrosis (periportal), Incidence (liver of C57BL/6 mice; [4]): 0/6
- Necrosis; Inflammatory cell foci, Incidence (liver of C57BL/6 mice; [4]): 0/6
- Vacuolation (centrilobular), Incidence (liver of C57BL/6 mice; [4]): 0/6
- Bile duct proliferation, Incidence (liver of C57BL/6 mice; [5]): 0/4
- Fibrosis (periportal), Incidence (liver of C57BL/6 mice; [5]): 0/4
- Necrosis; Inflammatory cell foci, Incidence (liver of C57BL/6 mice; [5]): 0/4
- Vacuolation (centrilobular), Incidence (liver of C57BL/6 mice; [5]): 1/4
- Bile duct proliferation, Incidence (liver of C57BL/6 mice; [6]): 1/4
- Fibrosis (periportal), Incidence (liver of C57BL/6 mice; [6]): 1/4
- Necrosis; Inflammatory cell foci, Incidence (liver of C57BL/6 mice; [6]): 1/4
- Vacuolation (centrilobular), Incidence (liver of C57BL/6 mice; [6]): 4/4
- Bile duct proliferation, Mean Grade (liver of C57BL/6 mice; [6]): 0.3 ± 0.5
- Fibrosis (periportal), Mean Grade (liver of C57BL/6 mice; [6]): 0.3 ± 0.5
- Necrosis; Inflammatory cell foci, Mean Grade (liver of C57BL/6 mice; [6]): 0.3 ± 0.5
- Vacuolation (centrilobular), Mean Grade (liver of C57BL/6 mice; [6]): 2.0 ± 1.2
- Dose at which hepatocyte vacuolization (fatty change) was first observed (liver of C57BL/6 mice; females): 10 µg/kg
- Doses at which minimal to slight hepatocyte necrosis and inflammatory cell infiltration were present (liver of C57BL/6 mice; females): 30 µg/kg
- Bile duct proliferation, Incidence (liver of C57BL/6 mice; [7]): 0/8
- Fibrosis (periportal), Incidence (liver of C57BL/6 mice; [7]): 0/8
- Necrosis; Inflammatory cell foci, Incidence (liver of C57BL/6 mice; [7]): 0/8
- Vacuolation (centrilobular), Incidence (liver of C57BL/6 mice; [7]): 1/8
- Vacuolation (centrilobular), Mean Grade (liver of C57BL/6 mice; [7]): 0.1 ± 0.4
- Bile duct proliferation, Incidence (liver of C57BL/6 mice; [8]): 0/8
- Fibrosis (periportal), Incidence (liver of C57BL/6 mice; [8]): 0/8
- Necrosis; Inflammatory cell foci, Incidence (liver of C57BL/6 mice; [8]): 0/8
- Vacuolation (centrilobular), Incidence (liver of C57BL/6 mice; [8]): 5/8
- Vacuolation (centrilobular), Mean Grade (liver of C57BL/6 mice; [8]): 0.9 ± 0.8
- Bile duct proliferation, Incidence (liver of C57BL/6 mice; [9]): 0/8
- Fibrosis (periportal), Incidence (liver of C57BL/6 mice; [9]): 0/8
- Necrosis; Inflammatory cell foci, Incidence (liver of C57BL/6 mice; [9]): 2/8
- Vacuolation (centrilobular), Incidence (liver of C57BL/6 mice; [9]): 6/8
- Necrosis; Inflammatory cell foci, Mean Grade (liver of C57BL/6 mice; [9]): 0.3 ± 0.5
- Vacuolation (centrilobular), Mean Grade (liver of C57BL/6 mice; [9]): 1.0 ± 0.8
- Bile duct proliferation, Incidence (liver of C57BL/6 mice; [10]): 0/8
- Fibrosis (periportal), Incidence (liver of C57BL/6 mice; [10]): 0/8
- Necrosis; Inflammatory cell foci, Incidence (liver of C57BL/6 mice; [10]): 6/8
- Vacuolation (centrilobular), Incidence (liver of C57BL/6 mice; [10]): 8/8
- Necrosis; Inflammatory cell foci, Mean Grade (liver of C57BL/6 mice; [10]): 0.8 ± 0.5
- Vacuolation (centrilobular), Mean Grade (liver of C57BL/6 mice; [10]): 3.0 ± 0.5
- Bile duct proliferation, Incidence (liver of C57BL/6 mice; [11]): 5/8
- Fibrosis (periportal), Incidence (liver of C57BL/6 mice; [11]): 5/8
- Necrosis; Inflammatory cell foci, Incidence (liver of C57BL/6 mice; [11]): 8/8
- Vacuolation (centrilobular), Incidence (liver of C57BL/6 mice; [11]): 8/8
- Bile duct proliferation, Mean Grade (liver of C57BL/6 mice; [11]): 0.9 ± 0.8
- Fibrosis (periportal), Mean Grade (liver of C57BL/6 mice; [11]): 0.6 ± 0.5
- Necrosis; Inflammatory cell foci, Mean Grade (liver of C57BL/6 mice; [11]): 1.3 ± 0.5
- Vacuolation (centrilobular), Mean Grade (liver of C57BL/6 mice; [11]): 4.0 ± 0.0
- Dose at which hepatocyte vacuolization (fatty change) was first observed (liver of C57BL/6 mice; males): 0.3 µg/kg
- Doses at which minimal to slight hepatocyte necrosis and inflammatory cell infiltration were present (liver of C57BL/6 mice; males): ≥ 3 µg/kg
- Half-life [1]: 190 to 288 h
- Whole gut transit time (male C57BL/6 mice; 30 µg/kg TCDD every 4 d, 27 d after initial dose, controls 2.5 h): 4.1 h
- Reduction in gut motility (male C57BL/6 mice; 30 µg/kg TCDD vs controls): 1.6 fold

From publication PMC5517430, “2,3,7,8-Tetrachlorodibenzo-p-dioxin (TCDD)-elicited effects on bile acid homeostasis: Alterations in biosynthesis, enterohepatic circulation, and microbial metabolism” (Scientific Reports, 2017)
